Data set [1] concerns experimental NEC in newborn mice. Briefly: Murine NEC model in NFkB-GFP transgenic mice (histology, mucosal TNF-α RTPCR, NFκB activation). In kind it is in vivo, mouse. Here is the method: FIG. 27A-G. CpG-ODN-HS and CpG-DNA reduce the development of experimental NEC in vivo in newborn mice. Newborn NEC and control mice were injected with CpG-ODN-HS or CpG-DNA. A. Histology (H&E) of terminal ileum of breast fed mouse. B. Histology (H&E) of terminal ileum of mouse after induction of NEC. C. Histology (H&E) of terminal ileum of mouse treated with CpG-DNA, after which conditions which induced NEC were applied. D. Histology (H&E) of terminal ileum of mouse treated with CpG-ODN-HS, after which conditions which induced NEC were applied. E. Histology (H&E) of terminal ileum of breast fed mouse treated with CpG-ODN-HS. F. Histology (H&E) of terminal ileum of breast fed mouse treated with CpG-DNA. G. Severity of NEC in newborn mice as scored by a blinded pediatric pathologist. *p<0.05 vs. NEC in saline-injected mice.
FIG. 28. CpG-ODN-HS and CpG-DNA reduce the expression of mucosal TNF-α in NEC newborn mice in vivo.
FIG. 29A-D. Confocal microscopy showing the extent of NFkB activation in mice with NEC in the absence or presence of CpG-ODN-HS. CpG-ODN-HS reduces the level of NFkB activation in NEC newborn mice in vivo. The mice express NFkB-GFP, and sections were stained with anti-GFP antibody (red; arrow).
The effect of the TLR9 agonist CpG-ODN 5′ […] 3′ (SEQ ID NO:10; referred to herein as CpG-ODN-HS) on the mediator of activated TLR4, NFκB, was examined in a murine NEC model (previously described, above). The effect of CpG-ODN-HS on inflammation in the NEC murine model was also examined as a measured by TNF-α expression, which is an index of inflammation.
Materials and methods. Phosphorothioated CpG-ODN-HS and oligodeoxynucleotide (ODN) 1826 ([…]) (SEQ ID NO:6; referred to herein as CpG-DNA) were synthesized by the University of Pittsburgh DNA synthesis facility. ODNs were confirmed to be endotoxin-free by Limulus assay. NFkB-GFP antibody was obtained from Santa Cruz and Abcam. The extent of nuclear translocation was determined in an adaptation of the methodology of Ding and colleagues. In brief, a threshold limit was set based upon the emission signal for the nuclear stain DRAQ5, which therefore defined a nuclear region of interest (ROI). To define a corresponding cytoplasmic region of interest, a circular region 12 pixels beyond the nucleus was stenciled upon each cell. The average integrated pixel intensity pertaining to the corresponding NFkB emission within the cytoplasmic and nuclear regions was then determined for more than 200 cells per treatment group in at least four experiments per group, using MetaMorph software version 6.1 (Molecular Devices Corporation, Downingtown, Pa.).
Mucosal TNF-α expression was measured using quantitative real-time PCR (RTPCR). Quantitative real-time PCR in cultured enterocytes and intestinal tissue using the BioRad iCycler (Biorad, Hercules, CA) was performed as in (Leaphart, C. L., J. Cavallo, S. C. Gribar, S. Cetin, J. Li, M. F. Branca, T. D. Dubowski, C. P. Sodhi, and D. J. Hackam. 2007. A Critical Role for TLR4 in the Pathogenesis of Necrotizing Enterocolitis by Modulating Intestinal Injury and Repair. J Immunology 179:4808-4820). Oligonucleotide primer pairs used for RTPCR were as follows: forward: 5′ […] 3′ (SEQ ID NO:14), reverse: 5′ […] 3′ (SEQ ID NO:15); and forward: 5′ […] 3′ (SEQ ID NO:16), reverse: 5′ […] 3′ (SEQ ID NO:17). Gene expression was normalized to β-actin expression. Where indicated, gene expression was assessed on 2.5% agarose gels using ethidium bromide staining. […]

The test system of data set [2] is models of ulcerative colitis. As to conditions: previous reports; cited from earlier work.
Data set [3] has as its system wild-type and NOD2-knockout mice. Briefly: Serum IL-6 release in LPS-injected wild-type and NOD2-knockout mice (ELISA). It counts as in vivo, mouse. As to conditions: LPS 5 mg/kg, MDP 1 mg/kg. The procedure:
(§1) FIG. 24A-C. MDP inhibits TLR4 signaling in enterocytes. A. IL-6 release in vitro as determined by ELISA in IEC-6 cells that were either untreated, or treated with LPS in the presence or absence of MDP. B. Serum IL-6 release in vivo in wild-type (open bars) and NOD2-deficient mice (solid bars) that were either pre-treated with saline or MDP then injected with LPS. C. SDS-PAGE showing the expression of phosphorylated ERK and beta-actin in IEC-6 cells that were treated with media (control), LPS, LPS with MDP, LPS with MDP-C which is a non-stimulatory analogue of MDP, and either MDP or MDP-C alone. **p<0.05 vs. control by ANOVA, *p<0.05 vs. LPS by ANOVA.
(§2) The next series of experiments were designed to further define the physiological significance of the finding that MDP reduces TLR4-mediated NFkB translocation in enterocytes, and to evaluate potential mechanisms involved. Since NFkB activation is known to lead to the release of pro-inflammatory cytokines including IL-6, experiments were performed to evaluate whether MDP would alter the extent of IL-6 release from LPS-treated IEC-6 cells. […] To determine the physiological significance of this work in vivo, wild-type and NOD2-knockout mice were injected with LPS (5 mg/kg) in the presence or absence of MDP (1 mg/kg), and serum IL-6 release—a measure of TLR4 signaling in vivo—was determined by ELISA.
(In general: An ELISA detects its analyte on a solid surface through an enzyme-linked reagent.)

The test system of data set [4] is IEC-6 cells. Kind of data set: pERK expression in LPS-treated IEC-6 cells (SDS-PAGE). It counts as cell-based. Here is the method:
as §1
To further define the effects of MDP on LPS-mediated signaling in enterocytes, IEC-6 cells were treated with LPS in the presence or absence of MDP and the expression of the TLR4 downstream target pERK was assessed by SDS-PAGE. As is shown in FIG. 24C, LPS caused an increase in the expression of pERK compared with untreated cells. […] Taken together, these findings indicate that NOD2 activation with MDP leads to an inhibition of TLR4 signaling in enterocytes in vitro and in vivo.

Data set [5] has as its system experimental NEC in newborn mice. Briefly: Experimental necrotizing enterocolitis in newborn mice, MDP treatment. It counts as in vivo, mouse. The procedure: FIG. 26A-E. MDP prevents against the development of experimental NEC in vivo in newborn mice. Newborn mice were injected with saline or MDP daily for four days, and then were induced to develop NEC. A. Histology (H&E) of terminal ileum of breast fed mouse treated with saline control. B. Histology (H&E) of terminal ileum of breast fed mouse treated with MDP. C. Histology (H&E) of terminal ileum of mouse pre-treated with saline, after which NEC was induced. D. Histology (H&E) of terminal ileum of mouse pre-treated with MDP, after which conditions which induced NEC in saline-treated mice were applied. E: Severity of NEC in newborn mice as scored by a blinded pediatric pathologist. *p<0.05 vs. NEC in saline-injected mice. Representative of three separate experiments with over 5 animals per group.
NOD2 expression in the intestine is reduced in human and experimental necrotizing enterocolitis. […]
MDP prevents against the development of experimental necrotizing enterocolitis. […] It was also determined that mucosal NOD2 expression is decreased in experimental NEC (FIG. 22I). […]

A further data set has as its system TLR4. Kind of data set: TLR4 distribution and expression in enterocytes after MDP (immunohistochemistry, RT-PCR). In kind it is in vivo, mouse. The procedure:
FIG. 25. MDP treatment decreases TLR4 expression in enterocytes. Newborn mice were treated with LPS after pre-treatment with either saline or MDP. Three hours later mucosal scrapings were harvested from the terminal ileum, and subjected to RT-PCR for expression of TLR4. Representative of 4 separate experiments. Duplicate samples are shown for each group.
MDP treatment of enterocytes reduces the expression of TLR4. The next series of studies investigated the potential mechanisms by which MDP activation of NOD2 could lead to a reduction in the extent of TLR4 signaling.

The subject of data set [6] is IEC-6 cells. Kind of data set: IL-6 release from LPS-treated IEC-6 cells (ELISA). It counts as cell-based. Conditions: IEC-6 cells in vitro. The procedure:
as §1, §2

A further data set concerns IEC-6 enterocytes. Kind of data set: TLR4-mediated NFkB (p65) translocation in IEC-6 enterocytes treated with LPS and MDP. In kind it is cell-based. As to conditions: IEC-6 cells. The text has this:
FIG. 23A-E. MDP prevents TLR4-mediated NFkB translocation in IEC-6 enterocytes. […] Representative of 5 separate experiments. **p<0.05 vs. control by ANOVA, *p<0.05 vs. LPS by ANOVA.
NOD2 activation with MDP inhibits TLR4 signaling in enterocytes. The next experiments were designed to determine whether NOD2 activation with MDP would inhibit TLR4 signaling in enterocytes. To do so, IEC-6 enterocytes—a cell line that represents a model system to study enterocyte biology and which expresses TLR4 (Neal et al., 2006, J Immunol 176:3070-3079)—were treated with LPS in the presence or absence of MDP. Since TLR4 signaling leads to the translocation of NFkB from the cytoplasm into the nucleus, the extent of TLR4 activation was evaluated using an immunofluorescence-based detection assay of the p65 subunit of NFkB. As is shown in FIG. 23A and quantified in FIG. 23E, in control cells, NFkB is localized in the cytoplasm. Upon treatment with LPS ([…], 1 h), NFkB was detected in the nucleus, indicative of NFkB activation (FIG. 23B).

The source of these data is patent US8518903B2, “Use of toll-like receptor-9 agonists” (University of Pittsburgh—of the Commonwealth System of …, priority 2007, dated 2013).

Turning to “5′ TCGTCGTTTTGTCGTTCCTGACGTT 3′ (listed as DNA, chemistry not fully specified) [CpG-ODN-HS, TLR9 agonist CpG-ODN]”, the “activation of NFκB” value in data set [1] (NEC mice expressing NFkB-GFP, confocal microscopy) was “reduced”. Further, the “level of expression of mucosal TNF-α in terminal ileum” value in data set [1] (NEC mice, RTPCR) is “reduced”. Moreover, the “NEC pathology (histology of terminal ileum)” value in data set [1] (NEC mice, treated vs untreated) is “inhibition of the NEC pathology”.
In the case of `CC(=O)N[C@@H]1[C@@H](O[C@H](C)C(=O)N[C@@H](C)C(=O)N[C@H](CCC(=O)O)C(N)=O)[C@H](O)[C@@H](CO)O[C@H]1O` [MDP, muramyl-di-peptide], the “degree of intestinal inflammation” value in data set [2] is listed as “can limit the degree of intestinal inflammation”. The “effect in reducing TLR4 signaling (serum IL-6 release)” value in data set [3] (NOD2-knockout mice) is “less pronounced”. The “LPS-mediated serum IL-6 release” value in data set [3] (wild-type mice) is “significantly reduced”. Moreover, in the data set with IEC-6 cells [4], the “LPS-induced pERK expression” value is “significantly reduced”. The “extent of NEC that developed (histology of terminal ileum)” value in data set [5] (NOD2-wild-type mice, MDP 1 mg/ml daily for four days, vs saline) was “striking reduction in the extent of NEC”. Further, the intestinal histology result in data set [5] (breast fed mice, MDP alone) was “did not alter intestinal histology”. The “relative distribution of TLR4 in enterocytes” value in the data set on TLR4 (immunohistochemistry) was “does not alter”. In addition, in the data set on TLR4 (newborn mice, LPS after MDP pre-treatment, terminal ileum mucosal scrapings, RT-PCR), the “expression of TLR4 in enterocytes” value is “significant reduction”. For the same compound, in the data set on IEC-6 cells [6], the “LPS-induced IL-6 release” value is “significantly reduced”. In addition, in the data set on IEC-6 enterocytes (LPS in the presence of MDP), the “LPS-induced nuclear translocation of NFkB” value is recorded as “reduction in nuclear translocation”. The “extent of NFkB translocation” value in the data set on IEC-6 enterocytes (MDP alone) is “did not significantly alter”.
Take `CC(=O)NC1C(O)OC(CO)C(O)C1OC(C)C(=O)NC(C)C(=O)NC(CCC(=O)O)C(N)=O` (stereo not shown) [MDPC]: the “LPS-induced pERK expression” value in the data set on IEC-6 cells [4] is “did not reduce”. Also, the “LPS-induced IL-6 release” value with IEC-6 cells [6] was “did not reduce”.
